According to patent US9434764B2, “Skin care compositions and methods comprising selective agonists of melanocortin 1 receptor” (University of Cincinnati, priority 2012, dated 2016):
Entries after “also recorded” stand apart in the source; their conditions may differ.

Experiments:
MC1R [1] = target: T1, MC1R (Homo sapiens, UniProt Q01726); experiment: Stimulation of cAMP formation in cultured human melanocytes; format: cell-based; design: MC1R is expressed on the cell surface of melanocytes; endogenous in cells; host or cells: cultured human melanocytes; settings: for cAMP compared to 10 nM αMSH: cultured human melanocytes; for potency in stimulating cAMP formation compared to another peptide: in words
T1 sequence (Q01726 whole entry): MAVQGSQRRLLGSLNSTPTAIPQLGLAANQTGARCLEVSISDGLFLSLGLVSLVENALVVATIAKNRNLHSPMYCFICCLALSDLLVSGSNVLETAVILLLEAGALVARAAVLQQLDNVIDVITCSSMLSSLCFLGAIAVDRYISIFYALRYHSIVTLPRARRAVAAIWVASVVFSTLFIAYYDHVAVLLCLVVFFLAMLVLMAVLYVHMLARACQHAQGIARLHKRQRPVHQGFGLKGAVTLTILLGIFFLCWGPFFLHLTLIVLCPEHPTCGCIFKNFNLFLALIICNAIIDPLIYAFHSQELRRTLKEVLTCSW
Procedure: Peptides were tested on cultured human melanocytes for their capacity to activate MC1R, as measured by stimulating cAMP formation. After 45 minutes of treatment with different concentrations of peptides, cAMP levels were measured using a I^125-labeled radioimmunoassay kit.
(§1) Peptides were tested as described in Example 4 above on cultured human melanocytes for their capacity to activate MC1R, as measured by stimulating cAMP formation, and for their capacity for stimulating tyrosinase activity, the rate-limiting enzyme for melanin synthesis. The tested peptides were synthesized according to the formula: Ar(CH2)mX^1—X^2—CO—X^3—X^4—X^5-(Trp)n-NX^6R wherein X^1 and X^2 are absent, X^3 is His, X^5 is Arg, and X^6 is H. X^4 amino acids were in the D-stereoisomer form, unless otherwise noted.

tyrosinase activity = experiment: Stimulation of tyrosinase activity in cultured human melanocytes; format: cell-based; settings: for TA (tyrosinase activity) compared to 10 nM αMSH: cultured human melanocytes; for effect on tyrosinase activity compared to another peptide / concentration at which significant stimulation of tyrosinase activity begins: 6-day treatment; for effect on tyrosinase activity compared to another peptide: in words
Procedure: Peptides were tested on cultured human melanocytes for their capacity for stimulating tyrosinase activity, the rate-limiting enzyme for melanin synthesis. Melanocytes were treated every other day, for a total of 6 days, with increasing concentrations of peptides. Medium containing H^3-tyrosine, the substrate for tyrosinase, was added to melanocytes 24 hours before the end of the 6-day treatment. Tyrosinase activity was measured by determining the amount of ^3H2O generated as […] is catalyzed by tyrosinase for melanin synthesis.
as §1

MC1R [2] = target: T1, MC1R; experiment: cAMP stimulation in heterologous cells expressing human MC1R; format: cell-based; design: expressed in transfected cells; settings: for EC50: cAMP, heterologous cells; for potency in activation of MC1R compared to MT-II: in words
Procedure: (§2) Receptor selectivity of peptide agonists for hMC1R was determined by stimulation of cAMP in heterologous cells expressing different human melanocortin receptors (MC1R, MC3R, MC4R, and MC5R).

[3] = test system: UV-irradiated human melanocytes; experiment: Repair of UV-induced cyclobutane pyrimidine dimers (CPD) in human melanocytes; format: cell-based; settings: for CPD removal at 1 nM compared to 10 nM α-MSH: 1 nM peptide, 48 hours post UV
Procedure: To investigate the effects of peptides on the repair of UV-induced DNA damage, levels of cyclobutane pyrimidine dimers (CPD), the major form of DNA photoproducts, were measured in UV-irradiated human melanocytes with or without peptide treatment. Melanocytes were pretreated with the peptides for 4 days prior to, and for 48 hours post UV exposure, harvested, immunostained by a specific antibody for CPD, and analyzed by flow cytometry.

hMC5R = target: T2, hMC5R (Homo sapiens, UniProt P33032); experiment: cAMP stimulation in heterologous cells expressing human MC5R; format: cell-based; settings: for EC50: cAMP, heterologous cells; for binding of MC5R: in words
T2 construct: expressed in transfected cells
T2 sequence (P33032 whole entry): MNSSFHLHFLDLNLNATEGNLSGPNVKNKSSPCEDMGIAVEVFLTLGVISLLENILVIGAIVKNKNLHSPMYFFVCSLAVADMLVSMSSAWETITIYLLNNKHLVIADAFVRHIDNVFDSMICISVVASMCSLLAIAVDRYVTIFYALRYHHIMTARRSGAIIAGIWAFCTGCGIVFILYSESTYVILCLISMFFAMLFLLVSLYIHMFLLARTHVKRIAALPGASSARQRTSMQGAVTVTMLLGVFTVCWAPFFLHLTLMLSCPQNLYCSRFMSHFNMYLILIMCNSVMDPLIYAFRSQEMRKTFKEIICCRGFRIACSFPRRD
Procedure: as §2

hMC3R = target: T3, hMC3R (Homo sapiens, UniProt P41968); experiment: cAMP stimulation in heterologous cells expressing human MC3R; format: cell-based; settings: for EC50: cAMP, heterologous cells; for binding of MC3R: in words
T3 construct: expressed in transfected cells
T3 sequence (P41968 whole entry): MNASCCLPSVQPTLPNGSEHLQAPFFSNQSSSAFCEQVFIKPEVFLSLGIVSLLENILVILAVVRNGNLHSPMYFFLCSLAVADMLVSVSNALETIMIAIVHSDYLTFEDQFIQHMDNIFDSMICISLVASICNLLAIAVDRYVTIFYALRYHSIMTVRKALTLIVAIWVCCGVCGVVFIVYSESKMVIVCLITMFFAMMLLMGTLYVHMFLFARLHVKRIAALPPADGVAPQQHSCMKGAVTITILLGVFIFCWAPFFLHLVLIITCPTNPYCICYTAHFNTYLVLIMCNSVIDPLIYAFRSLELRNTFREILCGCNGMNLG
Procedure: as §2

[4] = test system: UV-irradiated human melanocytes; experiment: Repair of UV-induced 8-oxodG in human melanocytes; format: cell-based
Procedure: To investigate the effects of peptides on repair of UV-induced DNA damage, levels of 8-oxodG, a major form of oxidative DNA damage, were measured in UV-irradiated human melanocytes with or without peptide treatment. […] Fluorescence intensity, which correlates with the amount of DNA damage, was quantified using ImagJ software.

hMC4R = target: T4, hMC4R (Homo sapiens, UniProt P32245); experiment: cAMP stimulation in heterologous cells expressing human MC4R; format: cell-based; settings: for EC50: cAMP, heterologous cells
T4 construct: expressed in transfected cells
T4 sequence (P32245 whole entry): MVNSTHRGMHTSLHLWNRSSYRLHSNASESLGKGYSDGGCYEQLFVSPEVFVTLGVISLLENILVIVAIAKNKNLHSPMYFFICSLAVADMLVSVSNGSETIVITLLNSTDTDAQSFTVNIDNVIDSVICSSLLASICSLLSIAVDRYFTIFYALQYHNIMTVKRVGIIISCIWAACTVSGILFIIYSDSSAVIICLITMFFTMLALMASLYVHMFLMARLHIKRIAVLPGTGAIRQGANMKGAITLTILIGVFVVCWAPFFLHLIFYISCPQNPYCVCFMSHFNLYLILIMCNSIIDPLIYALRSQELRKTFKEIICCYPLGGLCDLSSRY
Procedure: as §2

[5] = Peptide storage stability by HPLC; format: physicochemical; settings: lyophilized, open air, room temperature, 4 months
Procedure: LK-513 (Ph(CH2)3CO-His-(D-4-Bip)-Arg-NHMe) was tested for stability and degradation over a storage period. The peptide was stored in a lyophilized form in open air at room temperature for 4 months. After 4 months, HPLC was performed on a test sample of the peptide in order to measure degradation, using standard methods (FIG. 1). […] Without being bound by theory, it is believed that the enhanced stability is a product of the absence of amide bonds between natural L-L-amino acids in the tripeptides and the existence of only one amide bond between natural amino acids in the tetrapeptides (Arg-Trp). Amide bonds between non-natural D- and natural L-amino acids are less prone to chemical and enzymatic hydrolysis, as evidenced by the FIG. 1. Further, the bulk and hydrophobicity of the X4 amino acid (D-Phe or a bulky hydrophobic analog thereof, such as D-4-Bip in the case of LK-513) shield the polar amid bonds of the peptide from chemical and enzymatic degradation.

human melanocytes = experiment: Potency in human melanocytes; format: cell-based; settings: in words
Source text: Satyanarayanajois S. D., et al., Conformations of end-capped melanocortin agonists RCO-X-Z-Arg-Trp-NH2 by 2D-NMR, CD and computations, Peptides Breaking Away: Proceedings of the Twenty-First American Peptide Association 384 (2009). […] Ruwe A. R. et al., Semi-rigid tripeptide agonists of melanocortin receptors, Bioorg. Med. Chem. Lett. 19(17): 5176-81 (2009). […] Thus, while not desiring to be bound by theory, it is believed that the conformational restraints favorable for longer peptides may be unfavorable for shorter MC1R agonists, including the Formula I and Formula II peptides disclosed herein.

mouse MCRs = settings: in words; cited from earlier work

Compound: 3,4-O(CH2)2C6H4CH2CO-His-(D-4-FPhe)-Arg-Trp-NH2 [LK 210P]
- cAMP compared to 10 nM αMSH (MC1R [1]): ≧

Compound: 4-FC6H4CH2CO-His-(D-4-FPhe)-Arg-Trp-NH2 [LK 205P]
- cAMP compared to 10 nM αMSH (MC1R [1]): ≦
- TA (tyrosinase activity) compared to 10 nM αMSH (tyrosinase activity): ≧

Compound: N=C(N)NCCC[C@H](NC(=O)[C@@H](Cc1ccccc1)NC(=O)[C@H](Cc1c[nH]cn1)NC(=O)CCCc1ccccc1)C(=O)N[C@@H](Cc1c[nH]c2ccccc12)C(N)=O [LK-184, Ph(CH2)3CO-His-(D-Phe)-Arg-Trp-NH2]
- EC50 (MC1R [2]): 0.19 nM
- CPD removal at 1 nM compared to 10 nM α-MSH [3]: same effect at 1 nM on CPD removal as 10 nM α-MSH
- concentration giving maximal cAMP (MC1R [1]; human melanocytes, 45 minutes of treatment): 10 nM
- EC50 (hMC5R): 262 nM
- EC50 (hMC3R): 22.7 nM
- effect on tyrosinase activity compared to another peptide (tyrosinase activity; human melanocytes): comparable effects in tyrosinase activity

Compound: N=C(N)NCCC[C@H](NC(=O)[C@@H](Cc1cccc2ccccc12)NC(=O)[C@H](Cc1c[nH]cn1)NC(=O)CCCc1ccccc1)C(=O)N[C@@H](Cc1c[nH]c2ccccc12)C(N)=O [LK-467, Ph(CH2)3CO-His-(D-1-Nal)-Arg-Trp-NH2]
- EC50 (MC1R [2]): 0.34 nM
- CPD removal at 1 nM compared to 10 nM α-MSH [3]: same effect at 1 nM on CPD removal as 10 nM α-MSH
- reduction of CPD levels compared to LK-184 ([3]; 48 hours after UV exposure): as effective as LK-184
- potency in stimulating cAMP formation compared to another peptide (MC1R [1]; human melanocytes): more potent than LK-184
- EC50 (hMC5R): 122 nM
- reduction of 8-oxodG levels compared to LK-184 ([4]; 24 hours after UV exposure): as effective as LK-184
- EC50 (hMC3R): 32.4 nM
- EC50 (hMC4R): 18.1 nM
- potency at hMC4R compared to LK-184 (hMC4R; in words): about ten times less potent
- effect on tyrosinase activity compared to another peptide (tyrosinase activity; human melanocytes): comparable effects in tyrosinase activity
- potency compared to α-MSH in activating MC1R and stimulating melanogenesis (tyrosinase activity; human melanocytes, tyrosinase activity): at least 100 times

Compound: N=C(N)NCCC[C@H](NC(=O)[C@@H](Cc1ccc(-c2ccccc2)cc1)NC(=O)[C@H](Cc1c[nH]cn1)NC(=O)CCCc1ccccc1)C(N)=O [LK-511, Ph(CH2)3CO-His-(D-4-Bip)-Arg-NH2]
- EC50 (MC1R [2]): 1.46 nM
- potency in activation of MC1R compared to MT-II (MC1R [2]): about as potent as MT-II
- potency in stimulating cAMP formation compared to another peptide (MC1R [1]; human melanocytes): about ten times less potent than α-MSH
- EC50 (hMC5R): > 10000 nM
- binding of MC5R (hMC5R): do not bind
- EC50 (hMC3R): > 10000 nM
- binding of MC3R (hMC3R): do not bind
- EC50 (hMC4R): > 10000 nM
- binding of MC4R (hMC4R; in words): do not bind
- TA (tyrosinase activity) compared to 10 nM αMSH (tyrosinase activity): <
- concentration at which significant stimulation of tyrosinase activity begins (tyrosinase activity; human melanocytes): 1 nM

Compound: CNC(=O)[C@H](CCCNC(=N)N)NC(=O)[C@@H](Cc1ccc(-c2ccccc2)cc1)NC(=O)[C@H](Cc1c[nH]cn1)NC(=O)CCCc1ccccc1 [LK-513, Ph(CH2)3CO-His-(D-4-Bip)-Arg-NHMe]
- EC50 (MC1R [2]): 3.27 nM
- potency in activation of MC1R compared to MT-II (MC1R [2]): about as potent as MT-II
- potency in stimulating cAMP formation compared to another peptide (MC1R [1]; human melanocytes): about ten times less potent than α-MSH
- EC50 (hMC5R): > 10000 nM
- binding of MC5R (hMC5R): do not bind
- stability and degradation by HPLC [5]: highly stable and resistant to degradation, showing only a single HPLC peak; also recorded: highly stable and substantially free of degradation
- EC50 (hMC3R): > 10000 nM
- binding of MC3R (hMC3R): do not bind
- EC50 (hMC4R): > 10000 nM
- binding of MC4R (hMC4R; in words): do not bind
- TA (tyrosinase activity) compared to 10 nM αMSH (tyrosinase activity): <
- concentration at which significant stimulation of tyrosinase activity begins (tyrosinase activity; human melanocytes): 1 nM

Compound: CC(C)(C)c1ccc(C[C@@H](NC(=O)[C@H](Cc2c[nH]cn2)NC(=O)CCCc2ccccc2)C(=O)N[C@@H](CCCNC(=N)N)C(N)=O)cc1 [LK-514, Ph(CH2)3CO-His-(D-4-tBuPhe)-Arg-NH2]
- EC50 (MC1R [2]): 3.65 nM
- potency in activation of MC1R compared to MT-II (MC1R [2]): about as potent as MT-II
- potency in stimulating cAMP formation compared to another peptide (MC1R [1]; human melanocytes): about ten times less potent than α-MSH; also recorded: more potent than LK-511 or 513; also recorded: more potent than LK-511 or LK-513
- EC50 (hMC5R): > 10000 nM
- binding of MC5R (hMC5R): do not bind
- reduction of 8-oxodG levels at 100 nM compared to 1 nM α-MSH ([4]; 100 nM peptide, 24 hours post UV): greater effect than 1 nM α-MSH
- EC50 (hMC3R): > 10000 nM
- binding of MC3R (hMC3R): do not bind
- EC50 (hMC4R): > 10000 nM
- binding of MC4R (hMC4R; in words): do not bind
- TA (tyrosinase activity) compared to 10 nM αMSH (tyrosinase activity): <
- concentration at which significant stimulation of tyrosinase activity begins (tyrosinase activity; human melanocytes): 1 nM
- effect on tyrosinase activity compared to another peptide (tyrosinase activity; human melanocytes): the most effective

Compound: Ph(CH2)3CO-His-(D-1-Nal)-Arg-NH2 [LK 510P]
- TA (tyrosinase activity) compared to 10 nM αMSH (tyrosinase activity): NR (NR = No Response/inactive at 10 nM)

Compound: Ph(CH2)3CO-His-(D-1-Nal)-Arg-NHMe [LK 512P]
- TA (tyrosinase activity) compared to 10 nM αMSH (tyrosinase activity): NR (NR = No Response/inactive at 10 nM)

Compound: Ph(CH2)3CO-His-(D-2-Nal)-Arg-NH2 [LK 515P]
- TA (tyrosinase activity) compared to 10 nM αMSH (tyrosinase activity): <<

Compound: Ph(CH2)3CO-His-(D-2-Nal)-Arg-NHMe [LK 517P]
- TA (tyrosinase activity) compared to 10 nM αMSH (tyrosinase activity): <<<

Compound: Ph(CH2)3CO-His-(D-2-Nal)-Arg-Trp-NH2 [LK 468P]
- cAMP compared to 10 nM αMSH (MC1R [1]): ≦

Compound: Ph(CH2)3CO-His-(D-4-tBuPhe)-Arg-NHMe [LK 516P]
- TA (tyrosinase activity) compared to 10 nM αMSH (tyrosinase activity): <<

Compound: Ph(CH2)3CO-His-(D-Phe)-Arg-Trp-NHEt [LK-487]
- potency in stimulating cAMP formation compared to another peptide (MC1R [1]; human melanocytes): equipotent to LK-467
- effect on tyrosinase activity compared to another peptide (tyrosinase activity; human melanocytes): equipotent to LK-467

Compound: trans-4-HOC6H4CH═CHCO-His-D-Phe-Arg-NH2
- potency in human melanocytes (human melanocytes): less potent
- MC1R selectivity and potency at mouse MCRs compared to LK-394 (mouse MCRs): moderately increased MC1R selectivity and potency
